Measurements taken from patent US9593122B2, “Substituted pyrazolylpyrazole derivative and use of same as herbicide” (KYOYU AGRI CO., LTD., priority 2013, dated 2017).

How the values were obtained:
Echinochloa crus-galli = experiment: Paddy herbicidal activity test; assay type: in vivo; conditions: irrigated paddy pot, treated at 3.5 leaf stage of Echinochloa crus-galli, 30 days
Procedure, shortened: (§1)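 Flooded paddy-soil pots (3 cm water) were sown with Echinochloa, Monochoria and Scirpus, and rice at the 2.0-leaf stage was transplanted. Diluted wettable powder was dripped in per are at weed 3.5-leaf stage. After 30 days in a greenhouse (~30 °C), growth inhibition versus untreated plants was scored on an 11-level scale.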

Monochoria vaginalis = experiment: Paddy herbicidal activity test; assay type: in vivo; conditions: irrigated paddy pot, 30 days
Procedure, shortened: as §1

Scirpus juncoides = experiment: Paddy herbicidal activity test; assay type: in vivo; conditions: irrigated paddy pot, 30 days
Procedure, shortened: as §1

Rice plants = experiment: Paddy herbicidal activity test, phytotoxicity to transplanted rice; assay type: in vivo; conditions: rice transplanted at 2.0 leaf stage, 30 days
Experimental: Rice paddy soil was filled into a 1/10000 are pot followed by the addition of suitable amounts of water and chemical fertilizer, kneading, seeding with Echinochloa crus-galli, Monochoria vaginalis and Scirpus juncoides and maintaining in an irrigated state at a water depth of 3 cm.
Wettable powder of Target Compound (I) shown in Table 1 prepared in compliance with the preparation examples were diluted with a suitable amount of water, rice plants in the 2.0 leaf stage were transplanted during 3.5 leaf stage of Echinochloa crus-galli, and treated by dropping in chemical in the prescribed amount per are using a pipette.
(§2) After treating for 30 days in a glass greenhouse at an average atmospheric temperature of 30° C., the herbicidal efficacy thereof was investigated.
Evaluation of herbicidal efficacy was carried out by comparing growth inhibition rate (%) with an untreated group, while evaluation of phytotoxicity was carried out by comparing growth inhibition rate (%) with the state of a complete eradication group, and were evaluated at 11 levels indicated below.

Amaranthus retroflexus [1] = experiment: Farming soil treatment test; assay type: in vivo; conditions: soil surface spray prior to weed growth, 30 days
Experimental: (§3) Field soil was filled into a 1/6000 are pot followed by seeding with Digitaria ciliaris, Chenopodium album and Amaranthus retroflexus and covering with soil.
(§4) Wettable powder of compounds of formula (I) shown in Table 1 prepared in compliance with the preparation examples were diluted with water to the prescribed amount of chemical and uniformly sprayed onto each soil surface layer using 10 liters of sprayed water per are prior to weed growth following seeding.
as §2
(§5) Evaluation of herbicidal efficacy is carried out in the same manner as the above-mentioned Test Example 1.

Chenopodium album [2] = experiment: Farming soil treatment test; assay type: in vivo; conditions: soil surface spray prior to weed growth, 30 days
Experimental: as §3, §4, §2, §5

Digitaria ciliaris [3] = experiment: Farming soil treatment test; assay type: in vivo; conditions: soil surface spray prior to weed growth, 30 days
Experimental: as §3, §4, §2, §5

Amaranthus retroflexus [4] = experiment: Weed foliar treatment test; assay type: in vivo; conditions: foliar spray, 3 weeks
Experimental: (§6) Soil was filled into a 1/6000 are pot followed by seeding with Digitaria ciliaris, Chenopodium album and Amaranthus retroflexus, covering with soil, and cultivating in a glass greenhouse at an average atmospheric temperature of 25° C.
(§7) Wettable powder of Target Compound (I) shown in Table 1 prepared in compliance with the preparation examples were diluted with water to the prescribed amount of chemical and uniformly sprayed onto the weeds using 15 liters of sprayed water per are when Digitaria ciliaris had grown to the 1.0 to 2.0 leaf stage.
(§8) After treating for 3 weeks in a glass greenhouse at an average atmospheric temperature of 25° C., the herbicidal efficacy thereof was investigated.
(§9) Evaluation of herbicidal efficacy was carried out in the same manner as the above-mentioned Test Example 1.

Chenopodium album [5] = experiment: Weed foliar treatment test; assay type: in vivo; conditions: foliar spray, 3 weeks
Experimental: as §6, §7, §8, §9

Digitaria ciliaris [6] = experiment: Weed foliar treatment test; assay type: in vivo; conditions: foliar spray at 1.0 to 2.0 leaf stage of Digitaria ciliaris, 3 weeks
Experimental: as §6, §7, §8, §9

SMILES | Echinochloa crus-galli herbicidal efficacy (growth inhibition level) (Echinochloa crus-galli; 1g a.i./10a) | Echinochloa crus-galli herbicidal efficacy (growth inhibition level) (Echinochloa crus-galli; 5g a.i./10a) | Monochoria vaginalis herbicidal efficacy (growth inhibition level) (Monochoria vaginalis; 1g a.i./10a) | Monochoria vaginalis herbicidal efficacy (growth inhibition level) (Monochoria vaginalis; 5g a.i./10a) | Scirpus juncoides herbicidal efficacy (growth inhibition level) (Scirpus juncoides; 1g a.i./10a) | Scirpus juncoides herbicidal efficacy (growth inhibition level) (Scirpus juncoides; 5g a.i./10a) | Rice plants phytotoxicity (growth inhibition level) (Rice plants; 1g a.i./10a) | Rice plants phytotoxicity (growth inhibition level) (Rice plants; 5g a.i./10a) | Amaranthus retroflexus herbicidal efficacy (growth inhibition level) (Amaranthus retroflexus [1]; 5g a.i./10a) | Amaranthus retroflexus herbicidal efficacy (growth inhibition level) (Amaranthus retroflexus [1]; 10g a.i./10a) | Chenopodium album herbicidal efficacy (growth inhibition level) (Chenopodium album [2]; 5g a.i./10a) | Chenopodium album herbicidal efficacy (growth inhibition level) (Chenopodium album [2]; 10g a.i./10a) | Digitaria ciliaris herbicidal efficacy (growth inhibition level) (Digitaria ciliaris [3]; 5g a.i./10a) | Digitaria ciliaris herbicidal efficacy (growth inhibition level) (Digitaria ciliaris [3]; 10g a.i./10a) | Amaranthus retroflexus herbicidal efficacy (growth inhibition level) (Amaranthus retroflexus [4]; 5g a.i./10a) | Amaranthus retroflexus herbicidal efficacy (growth inhibition level) (Amaranthus retroflexus [4]; 10g a.i./10a) | Chenopodium album herbicidal efficacy (growth inhibition level) (Chenopodium album [5]; 5g a.i./10a) | Chenopodium album herbicidal efficacy (growth inhibition level) (Chenopodium album [5]; 10g a.i./10a) | Digitaria ciliaris herbicidal efficacy (growth inhibition level) (Digitaria ciliaris [6]; 5g a.i./10a) | Digitaria ciliaris herbicidal efficacy (growth inhibition level) (Digitaria ciliaris [6]; 10g a.i./10a) | also measured
C=C(C)CNc1c(C#N)cnn1-c1nn2c(c1Cl)CCCC2 [Compound 1, 1-(3-chloro-4,5,6,7-tetrahydropyrazolo[1,5-a]pyridin-2-yl)-5-(2-methylprop-2-enylamino)pyrazole-4-carbonitrile] | 8 (8: 80% to less than 90%) | 9 (9: 90% to less than 100%) | 9 (9: 90% to less than 100%) | 9 (9: 90% to less than 100%) | 7 (7: 70% to less than 80%) | 8 (8: 80% to less than 90%) | 0 (0 (exponent): 0% to less than 10% (growth inhibition rate)) | 0 (0 (exponent): 0% to less than 10% (growth inhibition rate)) | – | – | – | – | – | – | – | – | – | – | – | – | melting point: 97 to 98 °C
C=CCNc1c(C#N)cnn1-c1nn2c(c1Cl)CCCC2 [Control agent 4.59, reference compound] | 2 (2: 20% to less than 30%) | 5 (5: 50% to less than 60%) | 2 (2: 20% to less than 30%) | 4 (4: 40% to less than 50%) | 2 (2: 20% to less than 30%) | 4 (4: 40% to less than 50%) | 1 (1: 10% to less than 20%) | 2 (2: 20% to less than 30%) | 5 (5: 50% to less than 60%) | 6 (6: 60% to less than 70%) | 5 (5: 50% to less than 60%) | 6 (6: 60% to less than 70%) | 5 (5: 50% to less than 60%) | 6 (6: 60% to less than 70%) | 6 (6: 60% to less than 70%) | 7 (7: 70% to less than 80%) | 6 (6: 60% to less than 70%) | 7 (7: 70% to less than 80%) | 4 (4: 40% to less than 50%) | 6 (6: 60% to less than 70%) | –
C=CCN(CC)c1c(C#N)cnn1-c1nn2c(c1Cl)CCCC2 [Control agent 4.75, reference compound] | 3 (3: 30% to less than 40%) | 4 (4: 40% to less than 50%) | 4 (4: 40% to less than 50%) | 5 (5: 50% to less than 60%) | 2 (2: 20% to less than 30%) | 2 (2: 20% to less than 30%) | 0 (0 (exponent): 0% to less than 10% (growth inhibition rate)) | 1 (1: 10% to less than 20%) | 6 (6: 60% to less than 70%) | 6 (6: 60% to less than 70%) | 5 (5: 50% to less than 60%) | 6 (6: 60% to less than 70%) | 3 (3: 30% to less than 40%) | 4 (4: 40% to less than 50%) | 5 (5: 50% to less than 60%) | 7 (7: 70% to less than 80%) | 6 (6: 60% to less than 70%) | 7 (7: 70% to less than 80%) | 4 (4: 40% to less than 50%) | 5 (5: 50% to less than 60%) | –
C#CCNc1c(C#N)cnn1-c1nn2c(c1Cl)CCCC2 [Control agent 4.85, 4.156, reference compound] | 2 (2: 20% to less than 30%) | 3 (3: 30% to less than 40%) | 1 (1: 10% to less than 20%) | 3 (3: 30% to less than 40%) | 0 (0 (exponent): 0% to less than 10% (growth inhibition rate)) | 1 (1: 10% to less than 20%) | 2 (2: 20% to less than 30%) | 2 (2: 20% to less than 30%) | 3 (3: 30% to less than 40%) | 6 (6: 60% to less than 70%) | 4 (4: 40% to less than 50%) | 5 (5: 50% to less than 60%) | 3 (3: 30% to less than 40%) | 4 (4: 40% to less than 50%) | 4 (4: 40% to less than 50%) | 6 (6: 60% to less than 70%) | 5 (5: 50% to less than 60%) | 6 (6: 60% to less than 70%) | 3 (3: 30% to less than 40%) | 5 (5: 50% to less than 60%) | –
C#CCN(C(=O)C(F)(F)F)c1c(C#N)cnn1-c1nn2c(c1Cl)CCCC2 [Control agent 4.239, reference compound] | 3 (3: 30% to less than 40%) | 5 (5: 50% to less than 60%) | 1 (1: 10% to less than 20%) | 2 (2: 20% to less than 30%) | 0 (0 (exponent): 0% to less than 10% (growth inhibition rate)) | 1 (1: 10% to less than 20%) | 0 (0 (exponent): 0% to less than 10% (growth inhibition rate)) | 1 (1: 10% to less than 20%) | 3 (3: 30% to less than 40%) | 5 (5: 50% to less than 60%) | 2 (2: 20% to less than 30%) | 3 (3: 30% to less than 40%) | 4 (4: 40% to less than 50%) | 5 (5: 50% to less than 60%) | 4 (4: 40% to less than 50%) | 6 (6: 60% to less than 70%) | 3 (3: 30% to less than 40%) | 4 (4: 40% to less than 50%) | 3 (3: 30% to less than 40%) | 5 (5: 50% to less than 60%) | –
